According to patent US6770456B1, “Endogenous retrovirus tumor associated nucleic acids and antigens” (Ludwig Institute for Cancer Research, priority 1998, dated 2004):

Test system: AVL3-EBV B cells
Test: Peptide sensitization of EBV-transformed B cells to lysis by CTL 13 (51Cr release)
Type: cell-based, human
Details: 51Cr-labeled cells incubated 30 min at 20° C. with peptide; effector:target 5:1; chromium release after 4 hr; read-out: half-maximal effect for sensitizing AVL3-EBV B cells to lysis by CTL clone 13
Experimental: Sensitivity of target cells to lysis by the CTL was evaluated by a standard ^51Cr-release assay over 4 hr. Some lysis assays were performed in the presence of the following murine monoclonal antibodies: BB7.2, an IgG2b anti-HLA-A2 (from the ATCC), and OKM1, an IgG2b anti-CD11b (from the ATCC).
One of them, MLAVISCAV (SEQ ID NO:9), was contained within an open reading frame starting with an initiation codon preceeded by a canonical Kozak consensus sequence. This peptide sensitized AVL3-EBV B cells to lysis by CTL clone 13, with an half-maximal effect at 5 nM (FIG. 4). ^51Cr-labeled EBV-transformed B cells from patient AVL3 were incubated for 30 min at 20° C. with the indicated concentrations of peptide. CTL 13 were then added at an effector:target ratio of 5:1, and chromium release was measured after 4 hr.

## MLAVISCAV
  EC50: 5 nM
